In patent US20120196884A1, “UREA SUBSTITUTED SULPHONAMIDE DERIVATIVES” (BIOTIE THERAPIES CORPORATION, priority 2009, published 2012):
Entries after “also recorded” stand apart in the source; their conditions may differ.

How the values were obtained:
PC-3 cells = assay: PC-3 cell invasion through Matrigel; type: cell-based; details: Homo sapiens, 72 hours
Excerpt: The overexpression regulates cell adhesion and migration to and invasion through the extracellular matrix. By blocking the interaction between extracellular matrix components like collagen and α2β1 it is possible to block cancer cell migration and invasion in vitro. Prostate cancer cells (PC-3) expressing α2β1 endogenously were used to test the in vitro anticancer potential of the inhibitors of the present invention.
Invasion of PC-3 cells (CRL-1435, ATCC) through Matrigel was studied using BD Biocoat invasion inserts (BD Biosciences). Inserts were stored at −20° C. Before the experiments inserts were allowed to adjust to the room temperature. 500 μl of serum free media (Ham's F12K medium, 2 mM Lglutamine, 1.5 g/l sodium bicarbonate) was added into the inserts and allowed to rehydrate at 37° C. in cell incubator for two hours. The remaining media was aspirated. PC-3 cells were detached, pelleted and suspended into serum free media (50 000 cells/500 μL). 300 μL of cell suspension was added into the insert in the absence (control) or presence of the inhibitor according to the present invention. Inserts were placed on the 24-well plates; each well containing 700 μL of cell culture media with 3% of fetal bovine serum as chemoattractant. Cells were allowed to invade for 72 hours at 37° C. in cell incubator. Inserts were washed with 700 μL PBS, and fixed with 4% paraformaldehyde for 10 minutes. Paraformaldehyde was aspirated and cells were washed with 700 μL of PBS and inserts were stained by incubation with hematoxylin for 1 minute. The stain was removed by washing the inserts with 700 μL of PBS. Inserts were allowed to dry. Fixed invaded cells were calculated under the microscope. Invasion % was calculated as a comparison to the control.

[1] = test system: platelet adhesion to collagen; assay: Cellix microfluidic system: platelet adhesion to collagen coated capillary under flow; type: cell-based, human; parameters: key to Inhibition of platelet adhesion to collagen: + indictes that the compound efficiently inhibited the platelet adhesion to collagen; details: for Inhibition of platelet adhesion to collagen: whole blood, collagen coated capillary, shear 90 dynes/cm^2
Description: Cellix microfluidic platform models human blood vessels providing a dynamic set-up mimicking physiological conditions to test new therapeutic agents (Cellix Ltd). The platform was used to measure the platelet adhesion to collagen coated capillary under flow. An anti-coaculated whole blood sample was run through a collagen coated capillary under a constant shear and the size of thrombi on capillary wall was analyzed with analysis program (DucoCell, Cellix Ltd).
The capillary were coated with Horm collagen 20 μg/mL (Nycomed) and incubated for 24 h in +4° C. Background was blocked with 1% BSA (bovine serum albumin, Sigma) treatment for 30 min in room temperature. Blood was collected from a donor into blood collection tubes containing 40 μM PPACK (Dphenylalanyl-L-prolyl-L-arginine chloromethyl-ketone, Calbiochem) as anticoagulant. Blood was treated either with inhibitory compounds or vehicle controls. Samples were kept at room temperature for 5 minutes. The samples were run through the capillary with the constant shear rate (90 dynes/cm^2, Mirus 1.0 Nanopump, Cellix Ltd) for 5 min and capillary was washed with JNL buffer (6 mM Dextrose, 0.13 M NaCl, 9 mM Na Bicarb, 10 mM Na Citrate, 10 mM Tris base, 3 mM KCl, 0.81 mM KH2PO4, 0.9 mM MgCl2; pH was adjusted to 7.35 with 19 mM Citrate acid anhydrous, 37 mM Sodium citrate, 67 mM Dextrose) with the constant shear rate (90 dynes/cm^2) for 2 min. After that the average thrombi area on the capillary wall was analyzed with DucoCell analysis program (Cellix Ltd).

IL-6 = assay: LPS-induced IL-6 release in whole blood; type: cell-based, human; details: LPS 0.25 ng/mL, 2 h
Description: The inflammatory cells are shown to be dependent on α2β1 function during inflammatory process. The anti-inflammatory potential of the α2β1 modulators was studied by measuring the effect on the release of cytokines like IL-6 as an example from inflammatory cells. Lipopolysaccharide (LPS) was used to induce the production of IL-6. Anticoaculated whole blood sample was incubated with or without the integrin α2β1 inhibitor before LPS was added to induce the cytokine release. The amount of cytokine IL-6 released from peripheral blood leukocytes was measured from plasma samples 2 hours after the induction.
Blood was collected from the donors via venipuncture into evacuated Lithium heparin tubes (VenoJect, Terumo). Blood was treated with either α2β1 integrin inhibitors or vehicle control (DMSO). Samples were kept at room temperature for 5 minutes and lipopolysaccharide (LPS, 0.25 ng/mL) was added to induce cytokine release from peripheral blood lymphocytes. Samples were inculabted for 2 h in 37° C., the plasma was isolated and the amount of IL-6 was determined with Human IL-6 Quantikine ELISA Kit (R&D Systems).

whole blood = assay: PFA-100 platelet function analyzer, closure time of whole blood; type: cell-based; details: PFA-100 analysis, collagen and ADP membrane
Description: The PFA-100 is a high shear-inducing device that simulates primary haemostasis after injury of a small vessel. The system comprises a test-cartridge containing a biologically active membrane coated with collagen and ADP. An anticoaculated whole blood sample was run through a capillary under a constant vacuum. […] The time required to obtain full occlusion of the aperture was designated as the closure time. Each compound was added to the whole blood sample and the closure time was measured with PFA-100.
Blood was collected from a donor via venipuncture into evacuated blood collection Lithium heparin tubes (VenoJect, Terumo). Blood was aliquoted into 1.5 mL tubes and treated with either inhibitory compounds or controls (DMSO). Samples were kept at room temperature with rotation for 10 minutes and after that the closure time (Ct) of the blood was measured.

| SMILES | inhibition at 5 µM (PC-3 cells) | Inhibition of platelet adhesion to collagen [1] | other results |
| --- | --- | --- | --- |
| Cc1ccc(NC(=O)Nc2ccccc2)cc1NS(=O)(=O)c1cccc(-c2ccc(F)cc2)c1 [Compound B40] | 98% | + | – |
| COc1ccc(NC(=O)Nc2ccc(NS(=O)(=O)c3cccc(-c4ccc(F)cc4)c3)cc2)cc1 [Compound B72] | 39% | – | – |
| COc1ccc(-n2cc(S(=O)(=O)N(C)c3ccc(NC(=O)Nc4ccccc4)cc3)cn2)cn1 [Compound B109] | – | + | – |
| CN(c1ccc(NC(=O)Nc2ccccc2)cc1)S(=O)(=O)c1cccc(-c2ccc(F)cc2)c1 [Compound B55] | 76% | – | – |
| Cc1nn(-c2ccc(F)cc2)c(C)c1S(=O)(=O)N(CCCO)c1ccc(NC(=O)Nc2ccccc2)cc1 [Compound B54] | – | + | – |
| CN(c1ccc(NC(=O)Nc2ccccc2)cc1)S(=O)(=O)c1ccc(-c2ccnn2C)s1 [Compound B6] | – | – | release of IL-6 after induction with LPS (IL-6): decreases the release of cytokines like IL-6 |
| Cc1ccccc1NC(=O)Nc1ccc(NS(=O)(=O)c2cccc(-c3ccc(F)cc3)c2)cc1 [Compound B64] | 42% | – | – |
| O=C(Nc1ccccc1)Nc1cc(NS(=O)(=O)c2cccc(-c3ccc(F)cc3)c2)ccc1Cl [Compound B47] | 96% | – | – |
| O=C(Nc1ccccc1)Nc1ccc(Cl)c(NS(=O)(=O)c2cccc(-c3ccc(F)cc3)c2)c1 [Compound B86] | 44% | – | – |
| CN(c1ccc(NC(=O)Nc2ccccc2)cc1)S(=O)(=O)c1cccc(C#N)c1 [Compound B78] | 30% | + | – |
| CN(c1ccc(NC(=O)Nc2ccccc2)cc1)S(=O)(=O)c1cccc(OC(F)F)c1 [Compound B68] | 29% | – | – |
| CN(c1ccc(NC(=O)Nc2ccccc2)cc1)S(=O)(=O)c1cnn(-c2ccc(F)cc2)c1 [Compound B3] | – | + | – |
| CN(c1ccc(NC(=O)Nc2ccccc2)cc1)S(=O)(=O)c1cnn(-c2ccc(F)cn2)c1 [Compound B1] | – | + | platelet adhesion to collagen coated capillary under flow (FIG. 1) ([1]; Cellix analysis, flow conditions): dose dependent inhibitory effect; also recorded: inhibits the platelet adhesion to collagen coated capillary under mimicking physiological flow conditions dose dependently |
| O=C(NCc1ccccc1)Nc1ccc(NS(=O)(=O)c2cccc(-c3ccc(F)cc3)c2)cc1 [Compound B91] | 56% | – | – |
| O=C(Nc1ccncc1)Nc1ccc(NS(=O)(=O)c2cccc(-c3ccc(F)cc3)c2)cc1 [Compound B93] | – | + | – |
| CN(c1ccc(NC(=O)Nc2ccccc2)cc1)S(=O)(=O)c1ccc(-c2ccccn2)s1 [Compound B11] | – | + | – |
| Cc1ccc(NC(=O)Nc2ccccc2)cc1N(C)S(=O)(=O)c1cccc(-c2ccc(F)cc2)c1 [Compound B63] | 45% | – | – |
| Cc1ccccc1NC(=O)Nc1ccc(C)c(NS(=O)(=O)c2cccc(-c3ccc(F)cc3)c2)c1 [Compound B42] | – | + | – |
| CN(c1ccc(NC(=O)Nc2ccccc2)cc1)S(=O)(=O)c1ccc(-c2cc(C(F)(F)F)nn2C)s1 [Compound B19] | – | + | – |
| CN(c1ccc(NC(=O)Nc2ccccc2)cc1)S(=O)(=O)c1cncc(-c2ccc(F)cc2)c1 [Compound B52] | 25% | – | – |
| CN(c1ccc(NC(=O)Nc2ccccc2)cc1)S(=O)(=O)c1cc(C(F)(F)F)ccc1Cl [Compound B80] | 43% | – | – |
| CN(c1ccc(NC(=O)Nc2ccccc2)cc1)S(=O)(=O)c1ccc(-n2ccnc2)s1 [Compound B17] | – | + | – |
| Cc1ccc(NC(=O)NCc2ccccc2)cc1NS(=O)(=O)c1cccc(-c2ccc(F)cc2)c1 [Compound B67] | 10% | + | – |
| O=C(Nc1ccccc1)Nc1ccc(N(CCCO)S(=O)(=O)c2cccc(-c3ccc(F)cc3)c2)cc1 [Compound B33] | – | + | – |
| COCCOc1cccc(NC(=O)Nc2ccc(NS(=O)(=O)c3cccc(-c4ccc(F)cc4)c3)cc2)c1 [Compound B60] | 70% | + | – |
| CN(c1ccc(NC(=O)Nc2ccncc2)cc1)S(=O)(=O)c1cccc(-c2ccc(F)cc2)c1 [Compound B75] | 38% | – | – |
| CN(C)c1ccc(-c2ccc(S(=O)(=O)N(C)c3ccc(NC(=O)Nc4ccccc4)cc3)s2)cn1 [Compound B7] | – | + | – |
| CN(c1ccc(NC(=O)Nc2ccccc2)cc1)S(=O)(=O)c1ccc(Cl)cc1Cl [Compound B77] | 40% | – | – |
| O=C(Nc1ccccc1)Nc1ccc(NS(=O)(=O)c2cccc(-c3ccc(F)cc3)c2)cc1 [Compound B94] | 40% | + | closure time (Ct) of the whole blood (whole blood): increases the closure time (Ct) |
